From PubChem BioAssay AID248 (DTP/NCI, 2004)
“And” between values parts separate entries of the source, which are not always exact repeats. Identical values can stand only once. Inconclusive results and toxic doses are left out. Rule as the data show it: active = T/C of 150% or more; inactive = T/C below 125%.

Tested on: L1210 leukemia ip in BDF1 mice, survival T/C
Experiment: NCI In Vivo Anticancer Drug Screen. Data for tumor model L1210 Leukemia (intraperitoneal) in B6D2F1 (BDF1) mice
Conditions: endpoint: mean survival time, higher = longer survival
Outline: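 Tumor was transplanted into mice, which were then dosed with test compound or vehicle alone. Survival was recorded for each group, and the treated figure was expressed relative to the control figure.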

[1] = dose: 100.0 mg/kg/injection, schedule: Q01DX001 (ip), vehicle: saline
[2] = dose: 200.0 mg/kg/injection, schedule: Q01DX001 (ip), vehicle: saline
[3] = dose: 400.0 mg/kg/injection, schedule: Q01DX001 (ip), vehicle: saline
[4] = dose: 100.0 mg/kg/injection, schedule: Q01DX009 (ip), vehicle: Klucel (hydroxypropylcellulose) (HPC)
[5] = dose: 100.0 mg/kg/injection, schedule: Q04DX003 (ip), vehicle: Klucel (hydroxypropylcellulose) (HPC)
[6] = dose: 200.0 mg/kg/injection, schedule: Q01DX009 (ip), vehicle: Klucel (hydroxypropylcellulose) (HPC)
[7] = dose: 200.0 mg/kg/injection, schedule: Q04DX003 (ip), vehicle: Klucel (hydroxypropylcellulose) (HPC)
[8] = dose: 400.0 mg/kg/injection, schedule: Q01DX009 (ip), vehicle: Klucel (hydroxypropylcellulose) (HPC)
[9] = dose: 400.0 mg/kg/injection, schedule: Q04DX003 (ip), vehicle: Klucel (hydroxypropylcellulose) (HPC)
[10] = dose: 100.0 mg/kg/injection, schedule: Q04DX003 (ip), vehicle: saline with Tween-80
[11] = dose: 200.0 mg/kg/injection, schedule: Q04DX003 (ip), vehicle: saline with Tween-80
[12] = dose: 400.0 mg/kg/injection, schedule: Q04DX003 (ip), vehicle: saline with Tween-80
[13] = dose: 100.0 mg/kg/injection, schedule: Q01DX001 (ip), vehicle: saline with Tween-80
[14] = dose: 200.0 mg/kg/injection, schedule: Q01DX001 (ip), vehicle: saline with Tween-80
[15] = dose: 400.0 mg/kg/injection, schedule: Q01DX001 (ip), vehicle: saline with Tween-80

Measured: T/C

CCOC(=O)NC(CC)NC(=O)OCC
inactive: [1] 101 % of control | [2] 103 % of control | [3] 97 % of control

CC1(C)OC(=O)C(C#N)C1c1ccccc1 (stereo not drawn)
inactive: [1] 93 % of control | [2] 91 % of control | [3] 96 % of control

CSc1ccc(NC(=O)Nc2cc(C)cc(C)n2)cc1
inactive: [4] 94 % of control | [5] 98 % of control | [6] 94 % of control | [7] 103 % of control | [8] 87 % of control | [9] 98 % of control

O=[N+]([O-])c1cccnc1Oc1cccc(C(F)(F)F)c1
inactive: dose: 100.0 mg/kg/injection, schedule: Q04DX003 (ip), vehicle: saline 100 % of control | dose: 200.0 mg/kg/injection, schedule: Q04DX003 (ip), vehicle: saline 105 % of control | dose: 400.0 mg/kg/injection, schedule: Q04DX003 (ip), vehicle: saline 104 % of control

CCOC(=O)c1cnc(SC)nc1NC
inactive: [5] 97 % of control | [7] 99 % of control | [9] 111 % of control

O=S1(=O)CN2C=CC=CC2=N1
inactive: dose: 100.0 mg/kg/injection, schedule: Q04DX002 (ip), vehicle: saline with Tween-80 113 % of control | dose: 200.0 mg/kg/injection, schedule: Q04DX002 (ip), vehicle: saline with Tween-80 91 % of control | dose: 400.0 mg/kg/injection, schedule: Q04DX002 (ip), vehicle: saline with Tween-80 109 % of control

Nc1cccnc1
inactive: dose: 5.0 mg/kg/injection, schedule: Q01DX009 (ip), vehicle: saline 104 % of control | dose: 10.0 mg/kg/injection, schedule: Q01DX009 (ip), vehicle: saline 95 % of control | dose: 20.0 mg/kg/injection, schedule: Q01DX009 (ip), vehicle: saline 98 % of control

O=C(Oc1ccccc1)C(Cl)(Cl)Cl
inactive: dose: 6.25 mg/kg/injection, schedule: Q01DX009 (ip), vehicle: saline 95 % of control | dose: 12.5 mg/kg/injection, schedule: Q01DX009 (ip), vehicle: saline 92 % of control | dose: 25.0 mg/kg/injection, schedule: Q01DX009 (ip), vehicle: saline 89 % of control | dose: 100.0 mg/kg/injection, schedule: Q01DX001 (ip), vehicle: acetone 98 % of control | dose: 100.0 mg/kg/injection, schedule: Q04DX003 (ip), vehicle: acetone 95 % of control | dose: 200.0 mg/kg/injection, schedule: Q01DX001 (ip), vehicle: acetone 90 % of control | dose: 200.0 mg/kg/injection, schedule: Q04DX003 (ip), vehicle: acetone 98 % of control | dose: 400.0 mg/kg/injection, schedule: Q01DX001 (ip), vehicle: acetone 100 % of control

c1ccc(SCc2ncc3cnccn23)cc1
inactive: [10] 97 % of control | [11] 94 % of control | [12] 103 % of control

CCCCCCNC(=O)NC
inactive: [4] 97 % of control | [6] 103 % of control

O=C(OCC1OC(n2c(=O)[nH]c(=O)c3ncsc32)C(OC(=O)c2ccccc2)C1OC(=O)c1ccccc1)c1ccccc1 (stereo not drawn)
inactive: dose: 100.0 mg/kg/injection, schedule: Q01DX005 (ip), vehicle: saline 95 % of control | dose: 200.0 mg/kg/injection, schedule: Q01DX005 (ip), vehicle: saline 101 % of control

COC(=O)c1cc(OC)c(OC)c(OC)c1
inactive: [13] 100 % of control | [14] 98 % of control | [15] 96 % of control

CCCCCCCCC(CCCC1CCCC1)CCCC1CCCC1
inactive: [13] 98 % of control | [14] 94 % of control | [15] 96 % of control

Cn1c(=N)sc2ccc3ccccc3c21
inactive: dose: 12.5 mg/kg/injection, schedule: Q04DX003 (ip), vehicle: Klucel (hydroxypropylcellulose) (HPC) 90 % of control | dose: 25.0 mg/kg/injection, schedule: Q04DX003 (ip), vehicle: Klucel (hydroxypropylcellulose) (HPC) 91 % of control | dose: 50.0 mg/kg/injection, schedule: Q04DX003 (ip), vehicle: Klucel (hydroxypropylcellulose) (HPC) 98 % of control | [5] 86 % of control

Cc1ccc(S(=O)(=O)N(CCCc2c(Cc3ccccc3)nc(N)[nH]c2=O)c2ccccc2)cc1
inactive: [4] 88 % of control | [5] 97 % of control and 105 % of control | [6] 93 % of control | [7] 113 % of control and 88 % of control | [8] 100 % of control | [9] 93 % of control

O=C(CSCc1ccc([N+](=O)[O-])cc1)c1ccc(Br)cc1
inactive: [1] 92 % of control | [2] 95 % of control | [3] 92 % of control

O=C1c2ccccc2C(=O)c2cc(S(=O)(=O)O)ccc21
inactive: [10] 95 % of control | [11] 95 % of control | [12] 95 % of control

Cc1ccc([P+](=O)O)cc1Cl
inactive: [1] 100 % of control | [2] 93 % of control | [3] 88 % of control

CCCCCCCCC1SC1CCCCCCCC(=O)OCC1CS1 (stereo not drawn)
inactive: dose: 100.0 mg/kg/injection, schedule: Q01DX001 (ip), vehicle: other 101 % of control | dose: 200.0 mg/kg/injection, schedule: Q01DX001 (ip), vehicle: other 115 % of control | dose: 400.0 mg/kg/injection, schedule: Q01DX001 (ip), vehicle: other 93 % of control

C[n+]1csc(=S)[nH]1
inactive: dose: 100.0 mg/kg/injection, schedule: Q01DX009 (ip), vehicle: saline 98 % of control
